Experimental data as given in patent publication US12116424B2, “Compounds and compositions for modulating Listeria virulence” (priority 2021, dated 2024).
Read-outs that look alike come from different tables or passages of the source. Where a SMILES comes first, the peptide text is derived from it. Bridges are numbered along the chain shown (N, C = ends). [ ]: non-standard residue; d: D form.

How the values were obtained:
[1] = system: L. monocytogenes EGD-e; format: cell-based, Listeria monocytogenes
Protocol: Biofilm assay protocol. Biofilms assays were adapted from previous reports and protocols.^51-52 Overnight cultures of L. monocytogenes EGD-e and ΔagrD were grown in BHI, then diluted 1:100 in LB. For single-point assays, 2 μL of agonists or antagonists at an appropriate concentration were added to wells in a clear 96-well microtiter plates. For dose-response assays, a stock solution of the select peptide were serially diluted in DMSO, then 2 μL of each concentration were transferred to the appropriate wells. Then, 198 μL of bacteria were added to their respective wells, using ΔagrD for agonist wells and EGD-e for antagonist wells. In each plate, additional vehicle controls for baseline biofilm formation of EGD-e and ΔagrD strains (2 μL of DMSO) were included, as well as a media control (200 μL of LB). Plates were incubated at room temperature for 24 hours statically, at which point plates were inverted over a glass waste container and gently shook to remove planktonic bacteria. The wells were gently washed with 200 μL of PBS twice, inverting again over the waste container to remove liquid. Then, 200 μL of 0.1% crystal violet solution (in water) were added to each well and incubated for 30 minutes. The wells were then washed with 200 μL of PBS three more times and left to air dry for 15 minutes. Remaining crystal violet was solubilized by the addition of 100 μL of 95% ethanol in water solution, pipetting up and down to mix, incubated for 10 minutes, then absorbance was read at 595 nm. Absorbance data was processed by normalizing to the EGD-e vehicle control (100%) and the LB media control (0%). Non-linear regression curves were fitted to the data sets in GraphPad Prism 7 by using variable slope (four-parameter) dose-response analysis to obtain potency, efficacy, and statistical information about the activity of tested peptides. Each well was tested with four technical replicates and three biological replicates. […]

[2] = biological target: T1, L. monocytogenes AgrC (Listeria monocytogenes serovar 1/2a, UniProt Q8YAR5); test: Fluorescence (agr-GFP) reporter agonism assay, ΔagrD reporter strain; format: cell-based; design: Emax: dose or concentration left out as unconfirmed
T1 sequence (Q8YAR5 entry or part of it): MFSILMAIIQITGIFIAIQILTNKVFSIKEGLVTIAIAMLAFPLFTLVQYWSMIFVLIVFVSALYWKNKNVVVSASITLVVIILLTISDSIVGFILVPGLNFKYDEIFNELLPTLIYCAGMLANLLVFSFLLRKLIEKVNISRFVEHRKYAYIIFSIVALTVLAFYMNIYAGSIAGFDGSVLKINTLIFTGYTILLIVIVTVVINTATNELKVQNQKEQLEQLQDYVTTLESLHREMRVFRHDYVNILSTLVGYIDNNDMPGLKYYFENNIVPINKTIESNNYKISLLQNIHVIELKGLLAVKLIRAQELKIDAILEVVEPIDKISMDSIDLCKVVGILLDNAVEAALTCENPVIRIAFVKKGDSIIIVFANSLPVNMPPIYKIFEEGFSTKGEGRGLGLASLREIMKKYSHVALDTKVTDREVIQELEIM
Outline: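 L. monocytogenes EGD-e strains carrying agr promoter-GFP plasmid: ΔagrD for agonism (normalized to 1 μM AIP), wild type for antagonism (normalized to DMSO). Peptides in 1% DMSO with diluted overnight culture in BHI, 24 h at 37 °C shaking; GFP fluorescence corrected for background and OD600, four-parameter dose-response fit.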

[3] = biological target: T1, L. monocytogenes AgrC; test: Fluorescence (agr-GFP) reporter antagonism assay, wild-type EGD-e reporter strain; format: cell-based
Text: Construction of Listeria agr Reporter Strains. A gene block was designed and purchased from Integrated DNA Technologies to contain an EagI recognition site, the PII promoter of the agr system, the 3′ UTR of hly, super folder GFP, and a SaII recognition site. The gene block was digested with EagI and SaII, cloned into an EagI/SaII-cut pAM401 plasmid resulting in the plasmid pAM401-KW1, and then transformed into E. coli XL1-Blue competent cells. The insertion into pAM401 was confirmed using Kapa polymerase and primers DAP337 and DAP338, and additional confirmation via commercial sequencing. Purified plasmid was transformed into the conjugative E. coli S17 strain, which was used to conjugate to EGD-e and EGD-e ΔagrD to generate the agr-GFP reporter strains EGD-e:pAM401-KW1 and EGD-e ΔagrD:pAM401-KW1. Conjugation was verified using primers DAP337 and DAP338.
Fluorescence reporter assay protocol. For QS (agr) reporter assays, peptide stock solutions in DMSO (1 mM) were serially diluted in DMSO, and 2 μL of solution was added to each well in a black 96-well plate (polystyrene microtiter plate, Costar). Agonism assays utilized the ΔagrD reporter strain, with 2 μL of 100 μM AIP (final concentration 1 μM) as a positive control and 2 μL of DMSO as a negative control. Antagonism assays utilized the EGD-e reporter strain, with 2 μL of DMSO as a positive control. In both assays, wells containing only BHI media served as negative controls for normalization. An overnight culture of bacteria was diluted 1:50 in fresh BHI, then 198 μL were transferred to each well (excluding the media control wells). Plates were then incubated at 37° C. for 24 hours with shaking at 200 rpm. Fluorescence of GFP (excitation at 500 nm, emission at 540 nm) and OD600 of each well was measured using BioTek Synergy 2 plate reader. Measurements were processed by subtracting background fluorescence (BHI media), correcting by OD600, and the normalizing using the 1 μM AIP or the DMSO control for the agonism and antagonism assays, respectively. Non-linear regression curves were fitted to the data sets in GraphPad Prism 7 by using variable slope (four-parameter) dose-response analysis to obtain potency, efficacy, and statistical information about the activity of tested peptides. Each peptide was tested with three technical replicates and three biological replicates. All data derived from fluorescent reporter strains are represented with data points signifying the mean and error bars signifying the standard deviation from all replicates.
Preparation and Validation of Listeria agr Reporter Strains. […] However, adding exogenous AIP to the ΔagrD reporter results in an increase of fluorescence, indicating agr activity has been restored.

[4] = system: L. monocytogenes EGD-e ΔagrD; test: Crystal violet biofilm assay, ΔagrD strain (agonists); format: cell-based, Listeria monocytogenes; details: for biofilm production compared to vehicle controls: 10 μM, ΔagrD bacteria
Protocol: Biofilm assay protocol. Biofilms assays were adapted from previous reports and protocols.^51-52 Overnight cultures of L. monocytogenes EGD-e and ΔagrD were grown in BHI, then diluted 1:100 in LB. For single-point assays, 2 μL of agonists or antagonists at an appropriate concentration were added to wells in a clear 96-well microtiter plates. For dose-response assays, a stock solution of the select peptide were serially diluted in DMSO, then 2 μL of each concentration were transferred to the appropriate wells. Then, 198 μL of bacteria were added to their respective wells, using ΔagrD for agonist wells and EGD-e for antagonist wells. In each plate, additional vehicle controls for baseline biofilm formation of EGD-e and ΔagrD strains (2 μL of DMSO) were included, as well as a media control (200 μL of LB). Plates were incubated at room temperature for 24 hours statically, at which point plates were inverted over a glass waste container and gently shook to remove planktonic bacteria. The wells were gently washed with 200 μL of PBS twice, inverting again over the waste container to remove liquid. Then, 200 μL of 0.1% crystal violet solution (in water) were added to each well and incubated for 30 minutes. The wells were then washed with 200 μL of PBS three more times and left to air dry for 15 minutes. Remaining crystal violet was solubilized by the addition of 100 μL of 95% ethanol in water solution, pipetting up and down to mix, incubated for 10 minutes, then absorbance was read at 595 nm. Absorbance data was processed by normalizing to the EGD-e vehicle control (100%) and the LB media control (0%). Non-linear regression curves were fitted to the data sets in GraphPad Prism 7 by using variable slope (four-parameter) dose-response analysis to obtain potency, efficacy, and statistical information about the activity of tested peptides. Each well was tested with four technical replicates and three biological replicates. All data derived from crystal violet biofilm assays are represented with data points signifying the mean and error bars signifying the standard deviation from all replicates.

[5] = read-out: Max Activation Observed

## CSCC[C@H]1NC(=O)[C@H](Cc2ccccc2)NC(=O)[C@H](NC(=O)[C@@H](N)CCCCN)CSC(=O)[C@H](C(C)C)NC(=O)[C@H](Cc2ccccc2)NC1=O [A1K/C2dC/M4dM, K-(dC-F-dM-F-V)] (H-K[dC]F[dM]FV; thioester 2-C)
[1]
  biofilm of wild-type (WT) strain (FIG. 9B): reduces biofilm
[1]; 100 μM
  wild-type biofilm formation reduced by: 90%
[1]; dose-response, wild-type biofilm, read-out: IC50 (biofilm formation)
  IC50: 1860 nM
[2]; [5]
  Emax: 8.1%
[3]
  antagonism activity (in words): inhibiting wild-type activity to levels similar to basal ΔagrD activity

## CSCC[C@H]1NC(=O)[C@H](Cc2ccccc2)NC(=O)[C@@H](NC(=O)[C@H](C)N)CSC(=O)[C@H](C(C)C)NC(=O)[C@H](Cc2ccccc2)NC1=O [AIP M4dM, A-(C-F-dM-F-V)] (H-ACF[dM]FV; thioester 2-C; N-terminus assumed)
[4]
  biofilm formation of ΔagrD strain (FIG. 9A): increase biofilm formation
  biofilm production compared to vehicle controls: doubled
[2]; agonism, relative to native AIP
  increase in potency: three-fold
[2]; [5]
  Emax: 111%
[2]; ΔagrD reporter
  agonism activity (in words): no effect on agonism

## CSCC[C@@H]1NC(=O)[C@H](Cc2ccccc2)NC(=O)[C@@H](NC(=O)[C@H](C)N)CSC(=O)[C@H](C(C)C)NC(=O)[C@H](Cc2ccccc2)NC1=O [AIP, A-(C-F-M-F-V), reference compound] (H-ACFMFV; thioester 2-C; N-terminus assumed)
[4]
  biofilm formation of ΔagrD strain (FIG. 9A): increase biofilm formation
  biofilm production compared to vehicle controls: doubled
[2]; read-out: Max Activation
  Emax: 114%
  Emax at 1 µM: 114%
[2]; [5]
  Emax: 114%
